According to ChEMBL document CHEMBL1201862, “PubChem BioAssay data set” (2004):
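Five concentrations, 48 hours, 96-well plates. GI50: concentration for 50% inhibition of growth.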 Active and inactive are the calls of the source. No stated cut-off is given here; in the data, active = GI50 up to about 1.1 µM and inactive = higher.

How the values were obtained:
Assay in all cases: DTP human tumour cell line panel, 48 h
SN12C = tested on: SN12C
SNB-19 = tested on: SNB-19
MDA-MB-435 = tested on: MDA-MB-435
CCRF-CEM = tested on: CCRF-CEM
A498 = tested on: A498
CAKI-1 = tested on: CAKI-1
SF-295 = tested on: SF-295
OVCAR-4 = tested on: OVCAR-4
786-0 = tested on: 786-0
UACC-62 = tested on: UACC-62
OVCAR-5 = tested on: OVCAR-5
PC-3 = tested on: PC-3
COLO 205 = tested on: COLO 205
NCI-H460 = tested on: NCI-H460
SF-539 = tested on: SF-539
HCT-15 = tested on: HCT-15
NCI-H226 = tested on: NCI-H226
HL-60 = tested on: HL-60
MDA-MB-231 = tested on: MDA-MB-231
IGROV-1 = tested on: IGROV-1
HT-29 = tested on: HT-29
MDA-N = tested on: MDA-N
SW-620 = tested on: SW-620
LOX IMVI = tested on: LOX IMVI
HOP-92 = tested on: HOP-92
SK-OV-3 = tested on: SK-OV-3
OVCAR-3 = tested on: OVCAR-3
UACC-257 = tested on: UACC-257
NCI/ADR-RES = tested on: NCI/ADR-RES
OVCAR-8 = tested on: OVCAR-8
SF-268 = tested on: SF-268
UO-31 = tested on: UO-31
EKVX = tested on: EKVX
Malme-3M = tested on: Malme-3M
KM12 = tested on: KM12
U-251 = tested on: U-251
SK-MEL-28 = tested on: SK-MEL-28
NCI-H522 = tested on: NCI-H522
ACHN = tested on: ACHN
T47D = tested on: T47D
DU-145 = tested on: DU-145
NCI-H23 = tested on: NCI-H23
HOP-62 = tested on: HOP-62
MOLT-4 = tested on: MOLT-4
HCT-116 = tested on: HCT-116
M14 = tested on: M14
MCF7 = tested on: MCF7
A549 = tested on: A549
SNB-75 = tested on: SNB-75
SK-MEL-2 = tested on: SK-MEL-2
RXF 393 = tested on: RXF 393
SR = tested on: SR
TK-10 = tested on: TK-10
K562 = tested on: K562
HCC 2998 = tested on: HCC 2998
SK-MEL-5 = tested on: SK-MEL-5
RPMI-8226 = tested on: RPMI-8226
Hs-578T = tested on: Hs-578T

With C=C(C)[C@@H]1CCC2=C[C@H](OC2=O)[C@@]2(C)C[C@@H]2C2=CC(C)=C(O2)[C@H]1O the GI50 (SN12C) was 25.5 µM (inactive), the GI50 (SNB-19) was > 75 µM (inactive) and the GI50 (MDA-MB-435) was 30.6 µM (inactive). For the same compound, the GI50 (CCRF-CEM) was 37.4 µM (inactive), the GI50 (A498) was > 75 µM (inactive) and the GI50 (CAKI-1) was 21.5 µM (inactive). The GI50 (SF-295) was 33.3 µM (inactive), the GI50 (OVCAR-4) was 42.2 µM (inactive) and the GI50 (786-0) was 21.8 µM (inactive). For the same compound, the GI50 (UACC-62) was 41.1 µM (inactive), the GI50 (OVCAR-5) was > 75 µM (inactive) and the GI50 (PC-3) was 33.9 µM (inactive). The GI50 (COLO 205) was 33.2 µM (inactive), the GI50 (NCI-H460) was 54.3 µM (inactive) and the GI50 (SF-539) was 49.8 µM (inactive). For the same compound, the GI50 (HCT-15) was 36.4 µM, the GI50 (NCI-H226) was 27.7 µM (inactive) and the GI50 (HL-60) was 46.6 µM (inactive). The GI50 (MDA-MB-231) was 28.2 µM (inactive), the GI50 (IGROV-1) was 21.3 µM (inactive) and the GI50 (HT-29) was 23 µM (inactive). For the same compound, the GI50 (MDA-N) was 23.4 µM (inactive), the GI50 (SW-620) was > 75 µM (inactive) and the GI50 (LOX IMVI) was 27.1 µM (inactive). The GI50 (HOP-92) was > 75 µM (inactive), the GI50 (SK-OV-3) was 54.5 µM (inactive) and the GI50 (OVCAR-3) was 43.4 µM (inactive). For the same compound, the GI50 (UACC-257) was 39.1 µM (inactive), the GI50 (NCI/ADR-RES) was 23.6 µM (inactive) and the GI50 (OVCAR-8) was 25.1 µM (inactive). For the same compound, the GI50 (SF-268) was 30.7 µM (inactive), the GI50 (UO-31) was 60.8 µM (inactive) and the GI50 (EKVX) was 36.8 µM (inactive). For the same compound, the GI50 (Malme-3M) was 48.9 µM (inactive), the GI50 (KM12) was 25.5 µM (inactive) and the GI50 (U-251) was > 75 µM (inactive). The GI50 (SK-MEL-28) was 46 µM (inactive), the GI50 (NCI-H522) was 15.1 µM (inactive) and the GI50 (ACHN) was 36.9 µM (inactive). The GI50 (T47D) was 28.1 µM (inactive), the GI50 (DU-145) was 37.3 µM (inactive) and the GI50 (NCI-H23) was 25.9 µM (inactive). For the same compound, the GI50 (HOP-62) was > 75 µM (inactive), the GI50 (MOLT-4) was 24.8 µM (inactive) and the GI50 (HCT-116) was 22.3 µM (inactive). The GI50 (M14) was 68.4 µM (inactive), the GI50 (MCF7) was 53.2 µM (inactive) and the GI50 (A549) was 39 µM (inactive). The GI50 (SNB-75) was 35.5 µM (inactive), the GI50 (SK-MEL-2) was 40.8 µM (inactive) and the GI50 (RXF 393) was 38.5 µM (inactive). For the same compound, the GI50 (SR) was > 75 µM (inactive), the GI50 (TK-10) was 38.7 µM (inactive) and the GI50 (K562) was > 75 µM (inactive). The GI50 (HCC 2998) was > 75 µM (inactive).
In the case of CCN(CC)C(=S)SS(=O)(=O)c1ccc(N)cc1, the GI50 (SNB-19) was > 100 µM (inactive), the GI50 (A498) was > 40.2 µM (inactive) and the GI50 (CAKI-1) was > 46.9 µM (inactive). For the same compound, the GI50 (UACC-62) was 39.4 µM (inactive), the GI50 (OVCAR-5) was > 100 µM (inactive) and the GI50 (NCI-H460) was 87.1 µM (inactive). For the same compound, the GI50 (SK-MEL-5) was 15.2 µM (inactive), the GI50 (IGROV-1) was 4.91 µM (inactive) and the GI50 (HT-29) was > 100 µM (inactive). For the same compound, the GI50 (MDA-N) was 70.5 µM (inactive), the GI50 (HOP-92) was > 23.1 µM (inactive) and the GI50 (SK-OV-3) was > 100 µM (inactive). For the same compound, the GI50 (UO-31) was > 89.5 µM (inactive), the GI50 (EKVX) was > 100 µM (inactive) and the GI50 (RPMI-8226) was 22.8 µM (inactive). The GI50 (KM12) was 29.6 µM (inactive), the GI50 (NCI-H522) was 3.68 µM (inactive) and the GI50 (ACHN) was > 78.3 µM (inactive). For the same compound, the GI50 (T47D) was 76.7 µM (inactive), the GI50 (Hs-578T) was > 91 µM (inactive) and the GI50 (NCI-H23) was > 100 µM (inactive). For the same compound, the GI50 (HOP-62) was > 58.2 µM (inactive), the GI50 (MOLT-4) was 2.3 µM (inactive) and the GI50 (M14) was 70 µM (inactive). For the same compound, the GI50 (MCF7) was 7.29 µM (inactive), the GI50 (A549) was 14.5 µM (inactive) and the GI50 (SK-MEL-2) was > 100 µM (inactive). For the same compound, the GI50 (RXF 393) was 31.8 µM (inactive), the GI50 (SR) was 3.41 µM (inactive) and the GI50 (K562) was 39.5 µM (inactive). For the same compound, the GI50 (HCC 2998) was > 29.1 µM (inactive).
For CC[C@H](C)C1=C(OC(C)=O)[N@+]2([O-])Oc3ccc(-c4c(OC(C)=O)c(OC(C)=O)c(-c5ccc(OC(C)=O)cc5)c(OC(C)=O)c4OC(C)=O)cc3O[C@]2([C@@H](C)CC)C(=O)N1OC(C)=O, the GI50 (SN12C) was 17.9 µM (inactive), the GI50 (SNB-19) was 13.7 µM (inactive) and the GI50 (MDA-MB-435) was 16 µM (inactive). The GI50 (CCRF-CEM) was 0.294 µM (active), the GI50 (A498) was 14.1 µM (inactive) and the GI50 (CAKI-1) was 20 µM (inactive). For the same compound, the GI50 (SF-295) was 9.25 µM (inactive), the GI50 (OVCAR-4) was 12.2 µM (inactive) and the GI50 (786-0) was 13.6 µM (inactive). The GI50 (UACC-62) was 9.46 µM (inactive), the GI50 (OVCAR-5) was 29.2 µM (inactive) and the GI50 (PC-3) was 8.59 µM (inactive). For the same compound, the GI50 (COLO 205) was 8.15 µM (inactive), the GI50 (NCI-H460) was 20 µM (inactive) and the GI50 (SF-539) was 11.2 µM (inactive). For the same compound, the GI50 (HCT-15) was 15.5 µM, the GI50 (NCI-H226) was 17.6 µM (inactive) and the GI50 (HL-60) was 10.5 µM (inactive). The GI50 (MDA-MB-231) was 23.9 µM (inactive), the GI50 (SK-MEL-5) was 10.2 µM (inactive) and the GI50 (IGROV-1) was 9.29 µM (inactive). For the same compound, the GI50 (HT-29) was 15.6 µM (inactive), the GI50 (MDA-N) was 9.79 µM (inactive) and the GI50 (SW-620) was 13 µM (inactive). The GI50 (LOX IMVI) was 10.2 µM (inactive), the GI50 (SK-OV-3) was 12.7 µM (inactive) and the GI50 (OVCAR-3) was 9.29 µM (inactive). The GI50 (UACC-257) was 13.7 µM (inactive), the GI50 (NCI/ADR-RES) was 17.9 µM (inactive) and the GI50 (OVCAR-8) was 11.5 µM (inactive). The GI50 (SF-268) was 14.7 µM (inactive), the GI50 (UO-31) was 21.4 µM (inactive) and the GI50 (EKVX) was 5.45 µM (inactive). The GI50 (Malme-3M) was 15.2 µM (inactive), the GI50 (RPMI-8226) was 9.2 µM (inactive) and the GI50 (KM12) was 14.4 µM (inactive). For the same compound, the GI50 (U-251) was 16 µM (inactive), the GI50 (SK-MEL-28) was 12.2 µM (inactive) and the GI50 (NCI-H522) was 8.05 µM (inactive). The GI50 (ACHN) was 15.5 µM (inactive), the GI50 (T47D) was 10.5 µM (inactive) and the GI50 (DU-145) was 16.6 µM (inactive). The GI50 (NCI-H23) was 15.7 µM (inactive), the GI50 (MOLT-4) was 11.6 µM (inactive) and the GI50 (HCT-116) was 15.2 µM (inactive). The GI50 (M14) was 16.9 µM (inactive), the GI50 (MCF7) was 17.5 µM (inactive) and the GI50 (A549) was 12.7 µM (inactive). The GI50 (SNB-75) was 12 µM (inactive), the GI50 (SK-MEL-2) was 9.64 µM (inactive) and the GI50 (RXF 393) was 38.3 µM (inactive). The GI50 (SR) was 12.6 µM (inactive), the GI50 (TK-10) was 15.6 µM (inactive) and the GI50 (K562) was 14.5 µM (inactive). The GI50 (HCC 2998) was 0.00766 µM (active).
